Measured values from PMC11418212, “Characterization of four structurally diverse inhibitors of SUR2-containing KATP channels” (Channels, 2024).
Values joined by “and” are separate entries in the source; they are usually repeats but may differ in a detail not shown here. Equal values may be shown once. “Also recorded” adds a separate entry of the source. Read-outs that look alike come from different tables or passages of the source.

What was measured:
Kir6.1/SUR2B [1] = target: T1, Kir6.1/SUR2B (Homo sapiens, UniProt O60706); assay: Quantitative thallium flux assay, inhibition, stably transfected T-REx-HEK293 cells; format: cell-based
T1 construct: expressed in transfected cells; Kir6.1 tetracycline-inducible, SUR2B constitutive
T1 sequence (O60706 1-1549 isoform O60706-2, species assumed): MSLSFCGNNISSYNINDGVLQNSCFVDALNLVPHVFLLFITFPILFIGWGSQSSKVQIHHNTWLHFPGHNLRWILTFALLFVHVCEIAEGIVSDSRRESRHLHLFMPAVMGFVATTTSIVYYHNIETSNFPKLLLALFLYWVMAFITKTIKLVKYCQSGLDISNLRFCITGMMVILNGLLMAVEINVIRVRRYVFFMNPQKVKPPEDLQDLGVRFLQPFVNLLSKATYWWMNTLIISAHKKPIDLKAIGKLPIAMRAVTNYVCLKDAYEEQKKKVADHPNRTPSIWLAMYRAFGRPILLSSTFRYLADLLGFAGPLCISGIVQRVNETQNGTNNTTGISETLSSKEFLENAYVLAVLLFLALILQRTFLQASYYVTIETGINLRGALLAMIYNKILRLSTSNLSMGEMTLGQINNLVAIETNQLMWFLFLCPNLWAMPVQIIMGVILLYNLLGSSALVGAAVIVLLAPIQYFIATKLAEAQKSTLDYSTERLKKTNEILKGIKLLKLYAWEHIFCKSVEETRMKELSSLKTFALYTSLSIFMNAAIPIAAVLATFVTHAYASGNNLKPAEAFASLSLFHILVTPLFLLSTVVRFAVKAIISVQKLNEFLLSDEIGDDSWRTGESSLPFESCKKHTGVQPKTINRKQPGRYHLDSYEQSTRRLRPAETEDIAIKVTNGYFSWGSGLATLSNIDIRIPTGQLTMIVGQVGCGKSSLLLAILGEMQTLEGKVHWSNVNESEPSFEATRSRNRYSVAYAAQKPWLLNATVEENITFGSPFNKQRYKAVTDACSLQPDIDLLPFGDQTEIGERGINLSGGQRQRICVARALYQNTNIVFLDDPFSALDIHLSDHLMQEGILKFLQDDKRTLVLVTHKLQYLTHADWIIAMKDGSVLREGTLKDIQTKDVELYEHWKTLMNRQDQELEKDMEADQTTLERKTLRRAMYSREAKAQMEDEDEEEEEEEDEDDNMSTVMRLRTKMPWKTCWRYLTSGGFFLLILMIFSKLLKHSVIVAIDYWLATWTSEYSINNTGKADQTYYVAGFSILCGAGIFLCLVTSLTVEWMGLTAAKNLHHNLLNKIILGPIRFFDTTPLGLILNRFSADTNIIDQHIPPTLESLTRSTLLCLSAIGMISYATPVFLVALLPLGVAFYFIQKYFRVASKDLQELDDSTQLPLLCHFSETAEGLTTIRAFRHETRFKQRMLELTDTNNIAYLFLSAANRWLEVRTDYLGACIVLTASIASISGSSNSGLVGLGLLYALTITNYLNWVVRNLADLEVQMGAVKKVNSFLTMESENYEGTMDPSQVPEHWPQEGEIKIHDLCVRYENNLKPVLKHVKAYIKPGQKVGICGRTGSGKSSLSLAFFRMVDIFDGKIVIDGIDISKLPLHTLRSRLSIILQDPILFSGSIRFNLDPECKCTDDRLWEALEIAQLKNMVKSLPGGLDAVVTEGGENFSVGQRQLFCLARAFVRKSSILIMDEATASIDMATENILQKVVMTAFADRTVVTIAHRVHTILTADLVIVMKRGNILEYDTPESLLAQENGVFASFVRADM
T1 sequence (Q15842 whole entry partner, species assumed): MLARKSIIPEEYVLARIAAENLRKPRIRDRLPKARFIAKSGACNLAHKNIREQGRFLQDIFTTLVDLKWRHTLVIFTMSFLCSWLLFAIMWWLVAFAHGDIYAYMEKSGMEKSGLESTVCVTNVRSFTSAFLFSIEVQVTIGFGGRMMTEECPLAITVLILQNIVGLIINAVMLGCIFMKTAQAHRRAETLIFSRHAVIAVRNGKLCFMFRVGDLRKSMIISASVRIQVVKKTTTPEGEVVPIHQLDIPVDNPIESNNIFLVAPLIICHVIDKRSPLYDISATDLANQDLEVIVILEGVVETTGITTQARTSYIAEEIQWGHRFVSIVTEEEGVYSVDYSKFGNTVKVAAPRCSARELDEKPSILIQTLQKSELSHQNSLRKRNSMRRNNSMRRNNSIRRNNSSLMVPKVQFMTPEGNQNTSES

Kir6.2/SUR1 [2] = target: T2, Kir6.2/SUR1 (Homo sapiens, UniProt Q09428); assay: as above; format: cell-based
T2 sequence (Q09428 whole entry, species assumed): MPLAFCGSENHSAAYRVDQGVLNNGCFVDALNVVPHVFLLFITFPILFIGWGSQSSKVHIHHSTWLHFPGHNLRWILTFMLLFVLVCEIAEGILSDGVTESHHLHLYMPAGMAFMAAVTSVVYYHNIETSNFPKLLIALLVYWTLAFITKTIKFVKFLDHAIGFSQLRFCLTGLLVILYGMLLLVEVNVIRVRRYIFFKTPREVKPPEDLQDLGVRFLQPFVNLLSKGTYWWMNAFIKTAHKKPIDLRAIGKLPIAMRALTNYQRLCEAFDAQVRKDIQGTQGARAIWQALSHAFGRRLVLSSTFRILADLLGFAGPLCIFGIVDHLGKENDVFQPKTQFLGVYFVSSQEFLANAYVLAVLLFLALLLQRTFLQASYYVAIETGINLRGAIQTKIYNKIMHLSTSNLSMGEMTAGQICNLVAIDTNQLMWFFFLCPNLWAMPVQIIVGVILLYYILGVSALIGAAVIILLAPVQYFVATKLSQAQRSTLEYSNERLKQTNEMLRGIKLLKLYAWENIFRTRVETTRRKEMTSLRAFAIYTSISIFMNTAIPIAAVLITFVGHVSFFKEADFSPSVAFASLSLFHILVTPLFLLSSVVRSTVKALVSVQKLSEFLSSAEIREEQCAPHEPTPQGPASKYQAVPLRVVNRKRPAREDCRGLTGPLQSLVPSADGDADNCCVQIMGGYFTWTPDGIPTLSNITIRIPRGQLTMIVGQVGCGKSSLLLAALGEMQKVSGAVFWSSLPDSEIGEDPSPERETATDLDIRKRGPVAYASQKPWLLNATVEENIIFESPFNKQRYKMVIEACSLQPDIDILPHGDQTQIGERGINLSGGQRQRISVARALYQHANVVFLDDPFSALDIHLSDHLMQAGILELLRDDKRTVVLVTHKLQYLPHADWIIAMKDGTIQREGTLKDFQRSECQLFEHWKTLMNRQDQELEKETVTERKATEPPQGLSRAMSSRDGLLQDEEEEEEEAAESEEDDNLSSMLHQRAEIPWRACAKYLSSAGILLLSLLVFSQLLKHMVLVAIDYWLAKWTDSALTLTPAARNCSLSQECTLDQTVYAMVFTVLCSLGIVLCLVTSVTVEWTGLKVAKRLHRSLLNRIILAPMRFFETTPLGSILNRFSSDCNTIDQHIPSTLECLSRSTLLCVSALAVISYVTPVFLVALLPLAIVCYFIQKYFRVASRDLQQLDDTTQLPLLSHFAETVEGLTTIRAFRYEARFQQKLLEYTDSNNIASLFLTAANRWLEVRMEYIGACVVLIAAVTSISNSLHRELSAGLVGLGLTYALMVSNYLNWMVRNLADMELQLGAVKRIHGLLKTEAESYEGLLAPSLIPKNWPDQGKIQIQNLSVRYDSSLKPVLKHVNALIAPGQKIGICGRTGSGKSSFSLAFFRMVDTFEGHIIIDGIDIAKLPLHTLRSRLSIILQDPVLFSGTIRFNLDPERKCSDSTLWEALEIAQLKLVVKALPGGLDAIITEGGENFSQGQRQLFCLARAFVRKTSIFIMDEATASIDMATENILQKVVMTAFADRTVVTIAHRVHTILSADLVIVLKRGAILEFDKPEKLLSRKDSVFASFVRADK
T2 sequence (Q14654 whole entry partner, species assumed): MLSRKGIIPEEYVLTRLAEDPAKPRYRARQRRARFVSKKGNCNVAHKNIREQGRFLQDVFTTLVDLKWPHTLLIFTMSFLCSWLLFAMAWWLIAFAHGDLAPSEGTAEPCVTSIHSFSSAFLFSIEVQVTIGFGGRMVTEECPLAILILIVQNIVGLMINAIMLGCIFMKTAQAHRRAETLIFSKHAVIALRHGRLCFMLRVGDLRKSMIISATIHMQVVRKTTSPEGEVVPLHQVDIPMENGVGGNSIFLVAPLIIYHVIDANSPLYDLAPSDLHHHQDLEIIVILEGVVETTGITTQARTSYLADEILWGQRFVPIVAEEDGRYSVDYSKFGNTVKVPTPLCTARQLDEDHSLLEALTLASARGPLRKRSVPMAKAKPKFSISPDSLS
Description: Briefly, T-Rex-HEK293 cells underwent co-transfection with pcDNA5/TO-Kir6.1 or pcDNA5/TO-Kir6.2 (inducible expression) and pcDNA3.1-SUR2B or pcDNA3.1-SUR1 (constitutive expression) using Lipofectamine LTX following the manufacturer’s instructions and were then subjected to selection with antibiotics. Monoclonal cell lines were established through limiting dilution and characterization in thallium flux assays described below. […] KATP channel selectivity assays were performed in HEK293 cells transiently transfected with the indicated subunit using Lipofectamine LTX. The cells were incubated for 48 h after transfection before performing thallium flux assays.
Thallium flux assays were conducted using the established methods. Stably transfected T-REx-HEK-293 cells expressing Kir6.2/SUR1 or Kir6.1/SUR2B were cultured overnight in polyamine-coated plates (black-walled, clear-bottomed; BD, Bedford, MA) at a density of 20,000 cells in 20 µl per well of cell culture media. The expression of Kir6.2/SUR1 or Kir6.1/SUR2B channels was induced by treating cells with 1 µg/ml tetracycline overnight. The following day, cells were rinsed with an assay buffer (Hanks’ Balanced Salt Solution supplied with 20 mM HEPES), loaded with the thallium-sensor dye Brilliant Thallos-AM AM (Ion Bioscience, San Marcos, TX) for 1 h, and then washed again with assay buffer to remove unincorporated dye. […] To activate KATP channels independent of activators with ATP-depletion method, cells were treated with a cocktail of metabolic inhibitors (2.5 mM sodium cyanide and 20 mM 2-deoxy glucose) for 25 min before imagine. Control and test compounds diluted freshly from DMSO stocks into assay buffer were added to wells for four minutes before adding 0.5 mM chloride-free thallium stimulus buffer (Ion Bioscience) to initiate thallium flux through the expressed KATP channels. Thallium flux was recorded from all 384-wells for 2 min before terminating the experiment. […] Selectivity assays against other Kir channels were performed as described previously.
The kinetic fluorescence measurements (F) from each well were normalized to the initial reading (F0), producing static ratios (F/F0) that adjust for variations in cell count and dye uptake. […] The response (maxmin2) was determined by subtracting the min value from the max value. Percent inhibition was calculated by normalizing each well’s response to the positive and negative controls. Concentration–response curves were fitted using a single-site, four-parameter logistic function in Prism version 4.0 (GraphPad Software Inc., San Diego, CA) to calculate the half-maximal inhibitory concentration (IC50). Statistical comparisons of IC50 values were performed using an extra sum-of-squares F test and the Mann–Whitney test. A p-value of less than 0.05 was considered statistically significant.

Kir6.1/SUR2B [3] = target: T1, Kir6.1/SUR2B; assay: Thallium flux activation dose-response without channel pre-activation; format: cell-based; conditions: no channel pre-activation; doses up to 30 µM
Description: (§1) Thallium flux assays were conducted using the established methods. Stably transfected T-REx-HEK-293 cells expressing Kir6.2/SUR1 or Kir6.1/SUR2B were cultured overnight in polyamine-coated plates (black-walled, clear-bottomed; BD, Bedford, MA) at a density of 20,000 cells in 20 µl per well of cell culture media. The expression of Kir6.2/SUR1 or Kir6.1/SUR2B channels was induced by treating cells with 1 µg/ml tetracycline overnight. The following day, cells were rinsed with an assay buffer (Hanks’ Balanced Salt Solution supplied with 20 mM HEPES), loaded with the thallium-sensor dye Brilliant Thallos-AM AM (Ion Bioscience, San Marcos, TX) for 1 h, and then washed again with assay buffer to remove unincorporated dye. The cell plate was subsequently placed in a Panoptic Kinetic Imaging Plate Reader (Wavefront Bioscience, Franklin, TN) and imaged at a frequency of 1 Hz using 482/35 nm (excitation) and 536/40 nm (emission) filter sets. Kir6.1/SUR2B channels were activated with 10 µM pinacidil, whereas Kir6.1/SUR1 was activated with 30 µM VU0071063 [34]. To activate KATP channels independent of activators with ATP-depletion method, cells were treated with a cocktail of metabolic inhibitors (2.5 mM sodium cyanide and 20 mM 2-deoxy glucose) for 25 min before imagine. Control and test compounds diluted freshly from DMSO stocks into assay buffer were added to wells for four minutes before adding 0.5 mM chloride-free thallium stimulus buffer (Ion Bioscience) to initiate thallium flux through the expressed KATP channels. Thallium flux was recorded from all 384-wells for 2 min before terminating the experiment. […] Selectivity assays against other Kir channels were performed as described previously.
(§2) We therefore systematically explored this possibility in dose–response experiments against Kir6.2/SUR1 in the absence of channel pre-activation. Kir6.1/SUR2B was also evaluated for comparison.
(§3) Figure 6. Paradoxical activation of Kir6.2/SUR1. […] Fluorescence intensity at each dose was normalized to that in the absence of drug. […] (b) Activities of indicated compounds at 30 μM toward Kir6.1/SUR2B normalized to that of 30 μM pinacidil. […] (d) Activities of indicated compounds at 30 μM toward Kir6.2/SUR1 normalized to that of 30 μM VU0071063.

Kir6.2/SUR1 [4] = target: T2, Kir6.2/SUR1; assay: as above; format: cell-based; conditions: no channel pre-activation; doses up to 30 µM
Description: as §1, §2, §3

Kir6.1/SUR2B [5] = target: T1, Kir6.1/SUR2B; set-up: method as in PMID 38302135; conditions: previously reported; cited from earlier work
Kir6.2/SUR1 [6] = target: T2, Kir6.2/SUR1; set-up: method as in PMID 38302135; conditions: previously reported; cited from earlier work
[7] = test system: isolated mouse ductus arteriosus vessels; set-up: method as in PMID 38302135; conditions: compared with glibenclamide; cited from earlier work
Kir3.1/3.2 = target: T3, Kir3.1/3.2 (Homo sapiens, UniProt P48051+P48549); set-up: method as in PMID 29895592; conditions: cited from earlier work
T3 construct: expressed in transfected cells
T3 sequence (P48549 1-501): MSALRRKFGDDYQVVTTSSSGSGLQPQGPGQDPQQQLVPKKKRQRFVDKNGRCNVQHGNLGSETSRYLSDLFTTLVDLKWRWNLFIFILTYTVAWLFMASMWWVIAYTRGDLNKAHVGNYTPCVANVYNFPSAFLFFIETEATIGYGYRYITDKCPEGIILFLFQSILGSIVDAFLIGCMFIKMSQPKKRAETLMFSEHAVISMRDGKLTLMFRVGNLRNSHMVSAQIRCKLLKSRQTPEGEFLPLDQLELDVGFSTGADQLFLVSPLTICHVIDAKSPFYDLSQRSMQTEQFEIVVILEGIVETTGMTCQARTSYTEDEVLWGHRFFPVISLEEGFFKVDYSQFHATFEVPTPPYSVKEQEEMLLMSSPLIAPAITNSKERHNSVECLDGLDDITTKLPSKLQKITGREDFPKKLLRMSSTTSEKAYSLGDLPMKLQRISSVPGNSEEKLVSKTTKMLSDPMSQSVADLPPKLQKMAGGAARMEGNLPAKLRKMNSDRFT
T3 sequence (P48051 1-423): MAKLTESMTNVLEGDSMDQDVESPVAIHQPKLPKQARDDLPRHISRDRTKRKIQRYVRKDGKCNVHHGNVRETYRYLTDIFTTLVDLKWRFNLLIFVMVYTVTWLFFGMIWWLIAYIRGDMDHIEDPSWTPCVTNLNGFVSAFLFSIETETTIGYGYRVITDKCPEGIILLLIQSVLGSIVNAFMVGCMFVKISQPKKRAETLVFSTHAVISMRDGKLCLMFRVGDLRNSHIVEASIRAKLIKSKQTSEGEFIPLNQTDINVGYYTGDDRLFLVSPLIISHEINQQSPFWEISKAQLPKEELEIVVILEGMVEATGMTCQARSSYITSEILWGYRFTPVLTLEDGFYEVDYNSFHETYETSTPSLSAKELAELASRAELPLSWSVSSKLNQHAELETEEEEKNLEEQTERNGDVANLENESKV

Kir3.1/3.4 = target: T4, Kir3.1/3.4 (Homo sapiens, UniProt P48544+P48549); set-up: method as in PMID 29895592; conditions: cited from earlier work
T4 construct: expressed in transfected cells
T4 sequence (P48549 1-501): T3 sequence (P48549 1-501)
T4 sequence (P48544 1-419): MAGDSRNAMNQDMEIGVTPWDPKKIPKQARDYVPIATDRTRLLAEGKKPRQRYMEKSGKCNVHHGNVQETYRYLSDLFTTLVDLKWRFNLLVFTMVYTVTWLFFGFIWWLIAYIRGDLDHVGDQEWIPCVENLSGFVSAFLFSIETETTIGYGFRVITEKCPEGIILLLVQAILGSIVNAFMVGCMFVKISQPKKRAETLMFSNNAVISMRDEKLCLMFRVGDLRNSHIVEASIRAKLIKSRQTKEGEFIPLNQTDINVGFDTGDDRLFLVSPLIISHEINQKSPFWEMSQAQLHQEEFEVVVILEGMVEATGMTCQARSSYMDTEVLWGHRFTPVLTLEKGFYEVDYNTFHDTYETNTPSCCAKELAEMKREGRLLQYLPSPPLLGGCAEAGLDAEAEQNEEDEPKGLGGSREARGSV

Kir4.1 = target: T5, Kir4.1 (Homo sapiens, UniProt P78508); set-up: method as in PMID 29895592; conditions: cited from earlier work
T5 construct: expressed in transfected cells
T5 sequence (P78508 1-379): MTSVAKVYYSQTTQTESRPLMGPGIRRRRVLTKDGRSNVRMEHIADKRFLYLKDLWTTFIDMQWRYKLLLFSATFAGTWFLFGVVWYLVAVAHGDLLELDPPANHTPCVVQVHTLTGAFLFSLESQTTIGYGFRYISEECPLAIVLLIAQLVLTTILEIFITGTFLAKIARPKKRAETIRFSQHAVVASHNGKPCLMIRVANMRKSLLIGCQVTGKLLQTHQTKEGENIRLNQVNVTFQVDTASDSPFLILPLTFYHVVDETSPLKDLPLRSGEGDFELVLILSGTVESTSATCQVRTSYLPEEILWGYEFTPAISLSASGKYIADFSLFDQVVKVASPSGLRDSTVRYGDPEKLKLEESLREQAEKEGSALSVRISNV

Kir4.2 = target: T6, Kir4.2 (Homo sapiens, UniProt Q99712); set-up: method as in PMID 29895592; conditions: cited from earlier work
T6 construct: expressed in transfected cells
T6 sequence (Q99712 1-375): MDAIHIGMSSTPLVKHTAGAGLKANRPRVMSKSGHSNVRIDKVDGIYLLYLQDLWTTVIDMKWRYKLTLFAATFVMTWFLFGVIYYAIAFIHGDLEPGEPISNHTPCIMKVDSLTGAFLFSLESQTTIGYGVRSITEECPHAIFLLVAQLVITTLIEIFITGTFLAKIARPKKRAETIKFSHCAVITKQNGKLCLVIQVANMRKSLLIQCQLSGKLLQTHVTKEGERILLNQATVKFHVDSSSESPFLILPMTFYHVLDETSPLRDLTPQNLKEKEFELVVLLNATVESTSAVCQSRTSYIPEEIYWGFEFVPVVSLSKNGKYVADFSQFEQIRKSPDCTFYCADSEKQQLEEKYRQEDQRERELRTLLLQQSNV

[8] = ATP depletion with sodium cyanide and 2-deoxy-glucose, read-out: IC50 Kir6.1/SUR2B, ATP depletion
[9] = channels activated with 10 µM pinacidil, read-out: IC50 Kir6.1/SUR2B, pinacidil activation
[10] = thallium flux, ATP depletion with sodium cyanide and 2-deoxy-glucose

Cc1nc(-c2cccs2)sc1CNC(=O)Nc1cccs1 [VU0542270, reference compound]
IC50 (Kir6.1/SUR2B [1]; [8]): 31 nM and 30 nM
IC50 (Kir6.1/SUR2B [1]; [9]): 100 nM
Effect on Kir6.2/SUR1 channel activity (Kir6.2/SUR1 [2]; VU0071063 activation or ATP depletion, full range of doses tested (up to 30 µM)): no effect
IC50 (Kir6.2/SUR1 [2]; [10]): > 30000 nM
IC50 Kir6.2/SUR1, ATP depletion (Kir6.2/SUR1 [2]; [10]): no fit
IC50 Kir6.2/SUR1, VU0071063 activation (Kir6.2/SUR1 [2]; thallium flux, in the presence of 10 uM VU0071063): no fit
Activation of Kir6.1/SUR2B (Kir6.1/SUR2B [3]): failed to activate
Activation of Kir6.2/SUR1 (Kir6.2/SUR1 [4]): failed to activate; also recorded: did not
IC50 (Kir6.1/SUR2B [5]): ~100 nM
Activity toward Kir6.2/SUR1 (Kir6.2/SUR1 [6]): no apparent activity
Potency for contraction of ductus arteriosus vessels [7]: same potency as glibenclamide

COc1ccc(Cl)cc1C(=O)NCCc1ccc(S(=O)(=O)NC(=O)NC2CCCCC2)cc1 [Glibenclamide, glibenclamide, reference compound]
IC50 (Kir6.1/SUR2B [1]; [8]): 51 nM and 50 nM
IC50 (Kir6.1/SUR2B [1]; [9]): 33 nM and 30 nM
Activation of Kir6.1/SUR2B (Kir6.1/SUR2B [3]): failed to activate

CC(C)c1ccc(OCC(=O)NC2CC(C)(C)NC(C)(C)C2)c(Br)c1 [VU0134992]
Efficacy of inhibition of Kir3.1/3.2 (Kir3.1/3.2; at 30 µM): greater than 90%
IC50 (Kir3.1/3.2): 2500 nM
Efficacy of inhibition of Kir3.1/3.4 (Kir3.1/3.4; at 30 µM): greater than 90%
IC50 (Kir3.1/3.4): 3100 nM
Efficacy of inhibition of Kir4.1 (Kir4.1; at 30 µM): greater than 90%
IC50 (Kir4.1): 5200 nM
IC50 (Kir4.2): 8200 nM
